{
  "source": "patent US9675627B2",
  "about": "“Dosing regimens for treating and/or preventing cerebral amyloidoses” (Amicus Therapeutics, Inc., priority 2014, dated 2017)",
  "key": {"[1]": {"system": "β-hex", "assay": "beta-hexosaminidase enhancement assay in fibroblasts", "type": "cell-based", "settings": "healthy human skin fibroblasts, 5 days, 95, 390 or 780 nM, dose-dependent", "excerpt": "Enzymatic activity measurements were done in duplicate."}, "[2]": {"assay": "Single dose pharmacokinetic study (oral gavage), plasma and brain LC-MS/MS", "type": "in vivo, C57BL/J6 mice", "description": "5-week-old C57BL/J6 mice (n=5 mice/group, Taconic Farms, Germantown, N.Y.) were administered vehicle (water) or AdDNJ (30, 100 or 300 mg/kg) via oral gavage every day for 14 days. On day 15 mice were euthanized and brain/plasma collected for analysis. For single dose PK studies, 5-week-old C57BL/J6 mice (n=5 mice/group, Taconic Farms, Germantown, N.Y.) received a single 100 mg/kg dose (oral gavage) of AdDNJ and groups euthanized at 0.5, 1, 2, 4, 8, 16, 24 and 48 hours post dose for brain and plasma analysis. Whole brain tissue (10-15 mg) was homogenized in 1 mL of pH 5 lysis buffer for measuring beta-hexosaminidase activity as described above. AdDNJ levels were measured in plasma and brain samples using LC-MS/MS."}, "[3]": {"system": "Dutch APP^E693Q transgenic mice", "assay": "Novel object recognition (NOR)", "type": "in vivo", "settings": "3-month course, higher doses (30 or 100 mg/kg)", "description": "The generation and characterization of Dutch APPE693Q mice transgenic mice is described in Gandy, S., et al. Days to criterion as an indicator of toxicity associated with human Alzheimer amyloid-beta oligomers. Annals of neurology 68, 220-230 (2010). 3-month-old male Dutch APP^E693Q mice transgenic mice were orally gavaged 5 days/week with either vehicle (water) (n=15) or 3, 10, 30 or 100 mg/kg AdDNJ for 3 months (n=13). All animal studies were approved and conducted in accordance with the Institutional Animal Care and Usage Committee. Mice were kept in a pathogen-free environment, on a 12-hour light/dark cycle and given ad libitum access to food and water. At 6 month of age treatment groups, and a 3-month-old untreated baseline group (n=15), were cognitively assessed in the NOR, EPM and FC tests. 48 hours following the final dose mice were perfused with ice-cold 1×PBS. The brain was removed and dissected into two hemispheres. One half was snap-frozen on dry ice and stored at −80° C. for biochemistry; the other half was post-fixed in 4% paraformaldehyde then sagittally sectioned on a vibratome into 30 μm sections and stored at 4° C. in storage buffer until histological analyses. […]\nOn day 1, the mouse was placed in the NOR arena (20 cm diameter) for 10 min to acclimatize. […] The duration spent exploring the objects was then measured using ANY-maze (Stoelting, Wood Dale, Ill.)."}, "[4]": {"system": "Aβ", "assay": "Aβ assay (ELISA of monomeric Aβ, dot blot of oligomers) in brain", "type": "in vivo, Dutch APP^E693Q transgenic mice", "settings": "3-month treatment, any dose tested", "description": "The generation and characterization of Dutch APPE693Q mice transgenic mice is described in Gandy, S., et al. Days to criterion as an indicator of toxicity associated with human Alzheimer amyloid-beta oligomers. Annals of neurology 68, 220-230 (2010). 3-month-old male Dutch APP^E693Q mice transgenic mice were orally gavaged 5 days/week with either vehicle (water) (n=15) or 3, 10, 30 or 100 mg/kg AdDNJ for 3 months (n=13). All animal studies were approved and conducted in accordance with the Institutional Animal Care and Usage Committee. Mice were kept in a pathogen-free environment, on a 12-hour light/dark cycle and given ad libitum access to food and water. At 6 month of age treatment groups, and a 3-month-old untreated baseline group (n=15), were cognitively assessed in the NOR, EPM and FC tests. 48 hours following the final dose mice were perfused with ice-cold 1×PBS. The brain was removed and dissected into two hemispheres. One half was snap-frozen on dry ice and stored at −80° C. for biochemistry; the other half was post-fixed in 4% paraformaldehyde then sagittally sectioned on a vibratome into 30 μm sections and stored at 4° C. in storage buffer until histological analyses.\nRight hemibrains were processed via differential detergent solubilizationin accordance with Kawarabayashi, T., et al. Age-dependent changes in brain, CSF, and plasma amyloid (beta) protein in the Tg2576 transgenic mouse model of Alzheimer's disease. J Neurosci 21, 372-381 (2001). For analysis of native oligomeric Aβ protein structure, 2-4 μL native protein samples from TBS-soluble were spotted onto activated/pre-wetted PVDF membrane (0.22 μm; Millipore) and allowed to dry. Following protein spotting, membranes were blocked for 1 h at room temperature in 5% w/v non-fat milk (Santa Cruz) in TBS containing 0.1% v/v Tween-20 (Fisher Scientific; TBS-T). Membranes were then incubated in the indicated primary antibody (in 5% milk/TBS-T) overnight at 4 C, washed 4× in TBS-T, incubated in species-specific HRP-conjugated secondary antibody (in 5% milk/TBS-T) for 1 h at room temperature, and then washed 4× in TBS-T. Membranes were subsequently developed with ECL Western blotting substrate (Pierce) using the Fujifilm LAS-3000 developer. Membranes were then washed 1× in TBS-T and stripped in low pH stripping buffer [25 mM Glycine HCl, pH 2.0 and 1% w/v SDS] with vigorous shaking to remove primary and secondary antibody, washed 3× in TBS-T, and blocked for 1 h (in 5% milk/TBS-T) at room temperature before probing with the next primary antibody. Integrated density of immunoreactive spots was measured using MultiGauge Software (FujiFilm) and normalized to % control (vehicle). Generation, purification, and characterization of rabbit pAβ A11 (anti-prefibrillar oligomers, 0.5 μg/ml), rabbit pAβ OC (anti-fibrillar oligomers and fibrils; 0.25 μg/ml) and mouse mAβ Nu-4 (anti-oligomers; 1 μg/ml) have been described previously (Tomic, J. L., Pensalfini, A., Head, E. & Glabe, C. G. Soluble fibrillar oligomer levels are elevated in Alzheimer's disease brain and correlate with cognitive dysfunction. Neurobiology of disease 35, 352-358 (2009); Lambert, M. P., et al. Monoclonal antibodies that target pathological assemblies of Abeta. Journal of neurochemistry 100, 23-35 (2007)). […] To quantify monomeric Aβ levels, human/rat Aβ 1-40/1-42 ELISA kits (Wako) were used according to the manufacturer's instructions. […]"}},
  "data": [
    {"smiles": "CC(=O)NC1CNC(CO)[C@@H](O)C1O", "note": "(some centres unmarked) [AdDNJ, 2-acetamido-1,2-dideoxynojirimycin]", "values": [
      {"measurement": "increase in β-hex levels", "setting": "[1]", "result": "up to 3 fold"},
      {"measurement": "bioavailability", "setting": "[2]; qualitative statement", "result": "good bioavailability"},
      {"measurement": "AdDNJ level reached in brain", "setting": "[2]; single 100 mg/kg dose", "result": "> 342", "unit": "nM"},
      {"measurement": "blood brain barrier penetration", "setting": "[2]; single 100 mg/kg oral gavage", "result": "crossed the BBB"},
      {"measurement": "time for brain level to drop below Ki for β-hex at pH 5 (253 nM)", "setting": "[2]; single 100 mg/kg oral gavage", "result": "≤ 16", "unit": "hours"},
      {"measurement": "learning behavior in NOR test", "setting": "[3]", "result": "protection from the typical aging-related learning behavior deficits"},
      {"measurement": "Aβ40 level", "setting": "[4]", "result": "no change"},
      {"measurement": "Aβ42/40 ratio", "setting": "[4]", "result": "no change"},
      {"measurement": "Aβ42 level", "setting": "[4]", "result": "no change"},
      {"measurement": "Aβ oligomer levels", "setting": "[4]", "result": "no change"},
      {"measurement": "prefibrillar Aβ", "setting": "[4]", "result": "no change"}
    ]}
  ]
}
